{"source": "patent US10736888B2", "about": "“Triple combination” (HELPERBY THERAPEUTICS LIMITED, priority 2015, dated 2020)", "key": {"S. aureus on pig skin": {"tested_on": "S. aureus on pig skin", "assay": "antimicrobial activity against S. aureus on pig skin (swab, CFU counting, log kill)", "format": "cell-based, Staphylococcus aureus (Oxford)", "conditions": "Example 3; 2 hours after application; inoculum 7.6 (7.62 = complete kill)", "procedure": "Staphylococcus aureus (Oxford); Gram positive; Reference strain.\nBacterial cultures were prepared by inoculation of 10 ml of nutrient broth with a single colony of bacteria on blood agar or TSA and incubated at 37° C. with continuous shaking at 100 rpm for 16 to 24 hours. The overnight cultures were used for experimental tests.\nFor CFU counting, the bacterial suspensions were diluted using sterile deionized water or phosphate-buffered saline (PBS, Sigma Aldrich Ltd, Poole, Dorset, UK). 100 μl of 10-fold serial dilutions of bacteria culture were plated on one third of TSA plates in triplicate and incubated 24 to 48 hours at 37° C. The number of cells presented on the plates was counted using an AcoLyte colony counter (Synbiosis) and results were expressed as Colony Forming Units/ml (CFU/ml).\nThe efficacy of each of the above formulations F017A, F017B and F019 was assessed against S. aureus on pig skin. The S. aureus culture was grown overnight according to methods known in the art. The overnight culture was then spread on pig skin: 40 μl of culture was used for 2 cm^3 of pig skin. Each of the formulations F017A, F017B and F019 was then applied to the pig skin.\nAfter 2 hours and 5 hours from application of each formulation, the pig skin was swabbed and bacteria on the swab were processed for CFU counting. The results for F017A, F017B and F019 against a control experiment (where no triple combination was applied to the pig skin) and against commercially available products Bactroban® cream (mupirocin) and Naseptin® (chlorhexidine and neomycin) are shown in FIG. 1.\nThe efficacy of each of the above formulations F017A, F017B and F019 was again assessed against S. aureus on pig skin. The S. aureus culture was grown overnight according to methods known in the art. The overnight culture was then spread on pig skin: 40 μl of culture was used for 2 cm^3 of pig skin. […]\nThe efficacy of each of the above formulations F017A, F022A, F022B, F022C, F022D, F022E, F022F, and F022G was assessed against S. aureus on pig skin. […]"}, "[1]": {"tested_on": "clinically latent microorganisms", "assay": "screening for ability to kill clinically latent microorganisms (WO2000028074 method)", "format": "cell-based", "text": "International Patent Application, Publication Number WO2000028074 describes a method of screening compounds to determine their ability to kill clinically latent microorganisms. […] This observation has necessitated the development of novel antimicrobials which may be used to kill clinically latent microorganisms.\nBy way of example, WO2000028074 describes a suitable method of screening compounds to determine their ability to kill clinically latent microorganisms. A typical method may include the following steps: • (1) growing a bacterial culture to stationary phase; • (2) treating the stationary phase culture with one or more antimicrobial agents at a concentration and or time sufficient to kill growing bacteria, thereby selecting a phenotypically resistant sub-population; • (3) incubating a sample of the phenotypically resistant subpopulation with one or more test compounds or agents; and • (4) assessing any antimicrobial effects against the phenotypically resistant subpopulation."}}, "data": [{"molecule": "Cc1nc2ccc(Oc3ccccc3)cc2c2c1CCN2CCc1ccccc1", "note": "[HT61, 4-methyl-8-phenoxy-1-(2-phenylethyl)-2,3-dihydro-1H-pyrrolo[3,2-c]quinoline]", "values": [{"measurement": "Log Kill 2 h", "setting": "S. aureus on pig skin", "result": 1.87}]}, {"molecule": "neomycin", "values": [{"measurement": "Log Kill 2 h", "setting": "S. aureus on pig skin", "result": 4.56}, {"measurement": "activity against clinically latent microorganisms", "setting": "[1]", "result": "little or no activity"}]}, {"molecule": "C/C(=C\\C(=O)OCCCCCCCCC(=O)O)C[C@@H]1OC[C@H](C[C@@H]2O[C@H]2[C@@H](C)[C@H](C)O)[C@@H](O)[C@H]1O", "note": "[mupirocin]", "values": [{"measurement": "Log Kill 2 h", "setting": "S. aureus on pig skin", "result": 0.49}, {"measurement": "activity against clinically latent microorganisms", "setting": "[1]", "result": "little or no activity"}]}]}
